Test results reported in US20240207292A1, “BORONIC ACID COMPOUNDS, COMPOSITIONS AND METHODS” (Trustees of Tufts College, priority 2021, published 2024).

How the values were obtained:
[1] = molecular target: recombinant human dipeptidyl peptidase IV (DPPIV) (Homo sapiens (Human), UniProt P27487); test: In vitro assay dipeptidyl peptidase IV IC50 (Example 21); format: biochemical
[2] = Stability of 6555 with sulfur-containing and other stabilizers, 50 mM AAPH at 80° C. for 30 mins (Tables 7-9); format: physicochemical; conditions: for 6555 Remaining (%): 50 mM AAPH, 80° C., 0.5 hr, (+) mode; for 6555 Remain (%): AAPH 80° C. 30 mins
Source text: The effect of specified sulfur-containing compounds and other stabilizer compounds (including non-sulfur-containing stabilizer compounds) and mixtures of sulfur-containing compounds and non-sulfur-containing stabilizer compounds with the boronic acid compound 6555 (structure shown above) at various pH values.

recombinant human dipeptidyl peptidase IV (DPPIV), sequence (P27487 whole entry): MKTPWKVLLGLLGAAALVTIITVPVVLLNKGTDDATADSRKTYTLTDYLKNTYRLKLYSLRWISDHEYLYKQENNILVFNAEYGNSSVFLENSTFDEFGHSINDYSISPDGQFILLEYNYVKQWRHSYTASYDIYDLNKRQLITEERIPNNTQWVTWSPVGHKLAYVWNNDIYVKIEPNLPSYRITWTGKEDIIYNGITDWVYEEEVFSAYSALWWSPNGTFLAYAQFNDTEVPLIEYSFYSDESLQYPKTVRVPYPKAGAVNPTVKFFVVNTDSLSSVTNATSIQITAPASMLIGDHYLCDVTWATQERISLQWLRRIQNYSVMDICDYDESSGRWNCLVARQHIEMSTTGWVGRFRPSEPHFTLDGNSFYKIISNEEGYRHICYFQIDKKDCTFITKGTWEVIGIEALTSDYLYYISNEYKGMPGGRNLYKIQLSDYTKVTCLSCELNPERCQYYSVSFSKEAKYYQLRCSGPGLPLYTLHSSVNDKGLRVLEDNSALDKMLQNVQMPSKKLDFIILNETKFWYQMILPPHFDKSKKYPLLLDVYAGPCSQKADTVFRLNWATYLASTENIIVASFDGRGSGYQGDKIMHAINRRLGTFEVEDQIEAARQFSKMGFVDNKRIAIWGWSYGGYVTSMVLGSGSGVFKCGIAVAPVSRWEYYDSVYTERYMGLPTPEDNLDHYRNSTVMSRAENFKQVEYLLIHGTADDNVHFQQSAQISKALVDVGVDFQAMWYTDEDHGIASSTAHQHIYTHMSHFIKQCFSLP

C[C@@H](NC(=O)c1ccc(CNC(=O)CN2CCN(CC(=O)O)CCN(CC(=O)O)CCN(CC(=O)O)CC2)cc1)C(=O)N1CCC[C@H]1B(O)O [compound 6555, DOTA-aminomethyl-Bz-D-Ala-boroPro]
IC50 [1]: > 100 µM | 6555 Remaining (%) ([2]; NAM 5 mM, sodium metabisulfite 5 mM, pH 4.3): 88.8% | 6555 Remaining (%) ([2]; NAM 25 mM, pH 4.0): 85.9% | 6555 Remaining (%) ([2]; no stabilizer, pH 4.6): 55.8% | 6555 Remaining (%) ([2]; sodium ascorbate 2.5 mM, sodium gentisate 1 mM, Acetone sodium bisulfite (2.5 mM), pH 4.6): 73.1% | 6555 Remaining (%) ([2]; sodium ascorbate 2.5 mM, sodium gentisate 1 mM, Acetone sodium bisulfite (25 mM), pH 4.6): 94.0% | 6555 Remaining (%) ([2]; sodium ascorbate 2.5 mM, sodium gentisate 1 mM, D-mannitol (25 mM), pH 4.5): 15.5% | 6555 Remaining (%) ([2]; sodium ascorbate 2.5 mM, sodium gentisate 1 mM, Disodium hydrosulfite (25 mM), pH 4.3): 94.1% | 6555 Remaining (%) ([2]; sodium ascorbate 2.5 mM, sodium gentisate 1 mM, MSM(dimethyl sulfone) (25 mM), pH 4.5): 8.2% | 6555 Remaining (%) ([2]; sodium ascorbate 2.5 mM, sodium gentisate 1 mM, N-Acetyl-L-phenylalanine (25 mM), pH 4.0): 20.1% | 6555 Remaining (%) ([2]; sodium ascorbate 2.5 mM, sodium gentisate 1 mM, N-Acetyl-L-tyrosine (25 mM), pH 4.0): 13.6% | 6555 Remaining (%) ([2]; sodium ascorbate 2.5 mM, sodium gentisate 1 mM, NAC (25 mM), pH 4.1): 31.4% | 6555 Remaining (%) ([2]; sodium ascorbate 2.5 mM, sodium gentisate 1 mM, NAM 2.5 mM, sodium metabisulfite 2.5 mM, pH 4.5): 94.8% | 6555 Remaining (%) ([2]; sodium ascorbate 2.5 mM, sodium gentisate 1 mM, NAM 2.5 mM, pH 4.5): 53.3% | 6555 Remaining (%) ([2]; sodium ascorbate 2.5 mM, sodium gentisate 1 mM, NAM 10 mM, sodium metabisulfite 2.5 mM, pH 4.0): 93.2% | 6555 Remaining (%) ([2]; sodium ascorbate 2.5 mM, sodium gentisate 1 mM, NAM 25 mM, sodium metabisulfite 2.5 mM, pH 4.0): 92.2% | 6555 Remaining (%) ([2]; sodium ascorbate 2.5 mM, sodium gentisate 1 mM, NAM 25 mM, pH 4.0): 90.8% | 6555 Remaining (%) ([2]; sodium ascorbate 2.5 mM, sodium gentisate 1 mM, Potassium metabisulfite (2.5 mM), pH 4.4): 93.7% | 6555 Remaining (%) ([2]; sodium ascorbate 2.5 mM, sodium gentisate 1 mM, Potassium metabisulfite (25 mM), pH 4.5): 94.1% | 6555 Remaining (%) ([2]; sodium ascorbate 2.5 mM, sodium gentisate 1 mM, Sodium L-Glutamate monohydrate (concentration cut off), pH 4.7): 8.2% | 6555 Remaining (%) ([2]; sodium ascorbate 2.5 mM, sodium gentisate 1 mM, Sodium formaldehydesulfoxylate di (concentration cut off), pH 4.4): 91.7% | 6555 Remaining (%) ([2]; sodium ascorbate 2.5 mM, sodium gentisate 1 mM, Sodium formaldehydesulfoxylate di (concentration cut off, second entry), pH 4.5): 58.0% | 6555 Remaining (%) ([2]; sodium ascorbate 2.5 mM, sodium gentisate 1 mM, Sodium sulfite (2.5 mM), pH 4.5): 67.9% | 6555 Remaining (%) ([2]; sodium ascorbate 2.5 mM, sodium gentisate 1 mM, Sodium sulfite (5 mM), pH 4.6): 90.3% | 6555 Remaining (%) ([2]; sodium ascorbate 2.5 mM, sodium gentisate 1 mM, Sodium sulfite (10 mM), pH 4.8): 93.8% | 6555 Remaining (%) ([2]; sodium ascorbate 2.5 mM, sodium gentisate 1 mM, Sodium sulfite (25 mM), pH 5.1): 94.1% | 6555 Remaining (%) ([2]; sodium ascorbate 2.5 mM, sodium gentisate 1 mM, Thiourea (25 mM), pH 4.5): 84.1% | 6555 Remaining (%) ([2]; sodium ascorbate 2.5 mM, sodium gentisate 1 mM, disodium hydrosulfite 1 mM, pH 4.5): 47.4% | 6555 Remaining (%) ([2]; sodium ascorbate 2.5 mM, sodium gentisate 1 mM, disodium hydrosulfite 2.5 mM, pH 4.4): 91.7% | 6555 Remaining (%) ([2]; sodium ascorbate 2.5 mM, sodium gentisate 1 mM, disodium hydrosulfite 5.0 mM, pH 4.5): 94.3% | 6555 Remaining (%) ([2]; sodium ascorbate 2.5 mM, sodium gentisate 1 mM, disodium hydrosulfite 10.0 mM, pH 4.5): 94.1% | 6555 Remaining (%) ([2]; sodium ascorbate 2.5 mM, sodium gentisate 1 mM, disodium hydrosulfite 40.0 mM, pH 4.0): 94.6% | 6555 Remaining (%) ([2]; sodium ascorbate 2.5 mM, sodium gentisate 1 mM, sodium metabisulfite 1 mM, pH 4.5): 71.1% | 6555 Remaining (%) ([2]; sodium ascorbate 2.5 mM, sodium gentisate 1 mM, sodium metabisulfite 2.5 mM, pH 4.5): 93.4% | 6555 Remaining (%) ([2]; sodium ascorbate 2.5 mM, sodium gentisate 1 mM, sodium metabisulfite 25 mM, pH 4.4): 93.8% | 6555 Remaining (%) ([2]; sodium ascorbate 2.5 mM, sodium gentisate 1 mM, pH 4.6): 30.8% | 6555 Remaining (%) ([2]; sodium ascorbate 2.5 mM, sodium gentisate 1 mM, pH 5.1): 16.7% | 6555 Remaining (%) ([2]; sodium ascorbate 5 mM, sodium gentisate 2 mM, NAM 5 mM, disodium hydrosulfite 5 mM, pH 4.5): 95.7% | 6555 Remaining (%) ([2]; sodium ascorbate 5 mM, sodium gentisate 2 mM, NAM 5 mM, sodium metabisulfite 5 mM, pH 4.5): 95.8% | 6555 Remaining (%) ([2]; sodium ascorbate 5 mM, sodium gentisate 2 mM, NAM 5 mM, pH 4.5): 66.5% | 6555 Remaining (%) ([2]; sodium ascorbate 5 mM, sodium gentisate 2 mM, sodium metabisulfite 5 mM, disodium hydrosulfite 5 mM, pH 4.4): 95.3% | 6555 Remaining (%) ([2]; sodium ascorbate 5 mM, sodium gentisate 2 mM, sodium metabisulfite 5 mM, pH 4.5): 95.6% | 6555 Remain (%) ([2]; Sodium ascorbate (2.5 mM) +, Sodium gentisate (1 mM) +, Stabilizer (2.5 mM) Sodium sulfite, pH 5.1, SID 90517): 94.1% | 6555 Remain (%) ([2]; ascorbate (2.5 mM) +, gentisate (1 mM) +, Sodium hydrosulfite 2.5 mM, pH 4.4, SID 90537): 91.7% | 6555 Remain (%) ([2]; ascorbate (2.5 mM) +, gentisate (1 mM) +, Sodium hydrosulfite 5.0 mM, pH 4.5, SID 90542): 94.3% | 6555 Remain (%) ([2]; ascorbate (2.5 mM) +, gentisate (1 mM) +, Sodium hydrosulfite 10.0 mM, pH 4.5, SID 90532): 94.1% | 6555 Remain (%) ([2]; ascorbate (2.5 mM) +, gentisate (1 mM) +, Sodium hydrosulfite 25.0 mM, pH 4.3, SID 90539): 94.1% | 6555 Remain (%) ([2]; ascorbate (2.5 mM) +, gentisate (1 mM) +, Sodium hydrosulfite 40.00 mM, pH 4.0, SID 90538): 94.6%
